The subject of data set [1] is hypovolemic dogs receiving contrast. The following applies: cited from earlier work.
Data set [2] concerns contrast nephropathy. The conditions noted are these: cited from earlier work.
The conditions of data set [3]: systemic regimens; nausea and vomiting, flushing, hypotension, tachycardia, hypokalemia, ST/T-wave changes, dizziness, dyspnea; cited from earlier work.
For data set [4] the following is noted: cited from earlier work.
Data set [5] can be described thus: Intra-renal delivery of fenoldopam, renal artery blood flow. In kind it is in vivo, human. The following applies: intra-renal delivery at about 0.1 and about 0.2 mcg/kg/min. As to the method: At the time of the procedure, a switch to local delivery can easily be made with the previously described bifurcated catheter. […] Therefore another titration (in this situation most frequently migrating upward) is performed according to further embodiments, starting at the systemic dose, and moving towards a tolerated local dose, for the duration of the intended catheterization. Post-procedure, if the specialized bifurcated catheter is preferably to be removed, then the administration could be returned to a systemic dose, with or without additional hydration concurrently.

A short description of data set [6]: Local renal papaverine, renal blood flow in human subjects. In kind it is in vivo. The following applies: local renal doses of about 2 mg/min and about 3 mg/min.

Where a name gives a salt, the structure may show the parent alone.

Consider 2 compounds from US20070213686A1, “System and method for prevention of radiocontrast induced nephropathy” (priority 2003, published 2007).

Take `Oc1ccc(C2CNCCc3c2cc(O)c(O)c3Cl)cc1` (stereo not shown) [fenoldopam, fenoldopam mesylate]: the “renal blood flow and renal function (glomerular filtration rate)” value in data set [1] is “prevented reduction in both renal blood flow and renal function”. The “efficacy in preventing contrast nephropathy, 0.2 vs 0.1 mcg/kg/min” value in data set [2] (0.2 mcg/kg/min compared with 0.1 mcg/kg/min) is given as “greater efficacy”. The “benefit over saline (CONTRAST trial)” value in data set [2] (300 patients, 0.05-0.1 mcg/kg/min systemic IV over 12 hours) was “no benefit”. Further, the “renal function in high-risk patients undergoing contrast procedures” value in data set [2] (small studies incl. randomized, double blind, placebo-controlled trial, 0.05-0.5 mcg/kg/min for 4-6 hours, started prior to contrast) is reported as “attenuated worsening of renal function”. Besides, the “frequency of common side effects other than headache” value in data set [3] was at most 5%. In addition, in data set [4] (normal volunteers, 0.1 mcg/kg/min), the “increase in renal blood flow from baseline” value is recorded as “approximately 40%”. Also, the “increment in renal blood flow” value in data set [4] (patients with a mean serum creatinine of 2.6 mg/dL, 0.1 mcg/kg/min) is listed as 16%. In addition, the renal vasodilation entry in data set [4] (systemic doses as low as approximately 0.01 through approximately 0.5 mcg/kg/min IV) is given as “dose-dependent renal vasodilation”. Besides, in data set [5], the “renal artery blood flow” value was “significant and immediate increases in renal artery blood flow”.

Turning to `COc1ccc(Cc2nccc3cc(OC)c(OC)cc23)cc1OC` [papaverine], the “renal blood flow rates” value in data set [6] is “increase renal blood flow rates”.
